The data set relates to RAW 264.7 macrophages. The data set can be described thus: In vitro cytotoxicity (CytoTox-ONE, LDH release). Conditions: 12 hours.

In the case of `C[C@@H]1[C@H](O)[C@@H](C)/C=C/C=C/C=C/C=C/C=C/C=C/C=C/[C@H](O[C@@H]2O[C@H](C)[C@@H](O)[C@H](N)[C@@H]2O)C[C@@H]2O[C@](O)(C[C@@H](O)C[C@@H](O)[C@H](O)CC[C@@H](O)C[C@@H](O)CC(=O)O[C@H]1C)C[C@H](O)[C@H]2C(=O)O` [AMB, amphotericin B], the “cell death at the highest concentration tested” value is reported as “less than 50%” and the “concentration causing 10% cell death (IC10)” value is 108 µM.

For the origin of these results see US20180185408A1, “ANTIFUNGAL NYLON-3 POLYMERS AND COMBINATION THERAPY USING THEM TO TREAT FUNGAL INFECTIONS” (priority 2016, published 2018).
